Source: ChEMBL document CHEMBL4831509, “Identification, semisynthesis, and anti-inflammatory evaluation of 2,3-seco-clavine-type ergot alkaloids from human intestinal fungus Aspergillus fumigatus CY018” (Eur J Med Chem, 2021)
Blank lines part the entries; values can stand above or below the molecule they belong to. Activity calls are given as the source filed them. No cut-off for these calls is given here.

How the values were obtained:
[1] = test system: RAW264.7; experiment: Antiinflammatory activity against LPS-induced mouse RAW264.7 cells assessed as inhibition of NO production preincubated for 1 hr followed by LPS stimulation and measured after 24 hrs by Greiss reagent based assay; assay type: functional, cell-based
[2] = test system: RAW264.7; experiment: Antiinflammatory activity against LPS-induced mouse RAW264.7 cells assessed as reduction in IL-6 production preincubated for 1 hr followed by LPS stimulation and measured after 24 hrs by ELISA; assay type: functional, cell-based; conditions: dose 2.5-10 µM, time 25.0 hrs
[3] = test system: RAW264.7; experiment: Antiinflammatory activity against LPS-induced mouse RAW264.7 cells assessed as reduction in TNF-alpha production at 10 uM preincubated for 1 hr followed by LPS stimulation and measured after 24 hrs by ELISA relative to control; assay type: functional; conditions: time 25 hrs
[4] = test system: RAW264.7; experiment: Antiinflammatory activity against LPS-induced mouse RAW264.7 cells assessed as downregulation of COX2 protein expression at 2.5 to 10 uM by western blot analysis; assay type: functional, cell-based; conditions: dose 2.5-10 µM
[5] = test system: RAW264.7; experiment: Antiinflammatory activity against LPS-induced MD2-knockdown mouse RAW264.7 cells assessed as reduction in TNF-alpha secretion pretreated for 1 hr followed by LPS stimulation and measured after 24 hrs by ELISA; assay type: functional, cell-based; conditions: time 25.0 hrs
[6] = test system: RAW264.7; experiment: Inhibition of MD2 in LPS-stimulated mouse RAW 264.7 cells assessed as reduction in p65 phosphorylation by western blot analysis; conditions: dose 2.5-10 µM
[7] = test system: RAW264.7; experiment: Downregulation of MD2 expression in mouse RAW264.7 cells at 2.5 to 10 uM by western blot analysis; assay type: functional, cell-based; conditions: dose 2.5-10 µM
[8] = test system: RAW264.7; experiment: Downregulation of TLR4 expression in mouse RAW264.7 cells at 2.5 to 10 uM by western blot analysis; assay type: functional, cell-based; conditions: dose 2.5-10 µM
[9] = test system: RAW264.7; experiment: Antiinflammatory activity against LPS-induced MD2-knockdown mouse RAW264.7 cells assessed as reduction in iNOS mRNA expression by qRT-PCR analysis; assay type: functional, cell-based
[10] = test system: RAW264.7; experiment: Antiinflammatory activity against LPS-induced mouse RAW264.7 cells assessed as downregulation of iNOS protein expression at 2.5 to 10 uM by western blot analysis; assay type: functional, cell-based; conditions: dose 2.5-10 µM
[11] = test system: RAW264.7; experiment: Antiinflammatory activity against LPS-induced MD2-knockdown mouse RAW264.7 cells assessed as reduction in IL-6 mRNA expression by qRT-PCR analysis; assay type: functional, cell-based
[12] = test system: RAW264.7; experiment: Inhibition of MD2 in LPS-stimulated mouse RAW264.7 cells assessed as reduction in p38 phosphorylation at 2.5 to 10 uM measured by immunoblot analysis; conditions: dose 2.5-10 µM
[13] = test system: RAW264.7; experiment: Antiinflammatory activity against LPS-induced MD2-knockdown mouse RAW264.7 cells assessed as reduction in TNF-alpha mRNA expression by qRT-PCR analysis; assay type: functional, cell-based
[14] = species on record: Homo sapiens; experiment: Binding affinity to MD2 (unknown origin) assessed as association constant by surface plasmon resonance assay
[15] = test system: RAW264.7; experiment: Antiinflammatory activity against LPS-induced mouse RAW264.7 cells assessed as reduction in TNF-alpha production preincubated for 1 hr followed by LPS stimulation and measured after 24 hrs by ELISA; assay type: functional, cell-based; conditions: dose 2.5-10 µM, time 25.0 hrs
[16] = test system: RAW264.7; experiment: Antiinflammatory activity against LPS-induced mouse RAW264.7 cells assessed as reduction in IL-6 production at 10 uM preincubated for 1 hr followed by LPS stimulation and measured after 24 hrs by ELISA relative to control; assay type: functional; conditions: time 25 hrs
[17] = species on record: Homo sapiens; experiment: Binding affinity to MD2 (unknown origin) assessed as dissociation constant by surface plasmon resonance assay
[18] = target: T1, Toll-like receptor 4 (Mus musculus) (UniProt Q9QUK6); experiment: Binding affinity to TLR4 in mouse RAW264.7 cells assessed as inhibition of LPS/TLR4 colocalization at 10 uM preincubated for 1 hr followed by incubation with FITC-conjugated LPS for 1 hr by DAPI staining based confocal microscopy; assay type: cell-based; conditions: time 2.0 hrs
T1 sequence (whole entry): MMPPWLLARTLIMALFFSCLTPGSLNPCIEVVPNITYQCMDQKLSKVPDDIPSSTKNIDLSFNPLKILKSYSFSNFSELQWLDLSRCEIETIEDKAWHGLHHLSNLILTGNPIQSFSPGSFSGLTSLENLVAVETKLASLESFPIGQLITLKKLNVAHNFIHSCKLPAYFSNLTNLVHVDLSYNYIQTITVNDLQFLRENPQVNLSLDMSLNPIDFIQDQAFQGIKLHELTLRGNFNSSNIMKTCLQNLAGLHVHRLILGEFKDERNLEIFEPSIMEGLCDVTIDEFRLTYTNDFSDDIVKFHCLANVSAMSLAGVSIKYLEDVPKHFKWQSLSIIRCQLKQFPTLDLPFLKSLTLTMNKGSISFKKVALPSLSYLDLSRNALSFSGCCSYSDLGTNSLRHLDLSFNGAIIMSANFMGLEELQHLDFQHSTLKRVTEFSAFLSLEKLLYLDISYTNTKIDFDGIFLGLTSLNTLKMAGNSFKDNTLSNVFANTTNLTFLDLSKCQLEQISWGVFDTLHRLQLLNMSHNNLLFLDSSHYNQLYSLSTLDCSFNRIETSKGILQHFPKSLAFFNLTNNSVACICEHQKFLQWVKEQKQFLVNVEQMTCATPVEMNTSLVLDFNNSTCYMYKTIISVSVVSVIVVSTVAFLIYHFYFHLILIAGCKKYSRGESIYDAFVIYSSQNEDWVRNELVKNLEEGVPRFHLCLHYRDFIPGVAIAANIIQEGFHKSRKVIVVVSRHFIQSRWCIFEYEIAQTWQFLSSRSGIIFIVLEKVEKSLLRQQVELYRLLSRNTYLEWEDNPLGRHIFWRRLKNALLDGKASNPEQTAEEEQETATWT

[19] = test system: RAW264.7; experiment: Inhibition of MD2 in LPS-stimulated mouse RAW 264.7 cells assessed as reduction in IKKbeta phosphorylation by western blot analysis; conditions: dose 2.5-10 µM
[20] = test system: RAW264.7; experiment: Inhibition of MD2 in mouse RAW264.7 cells assessed as reduction in LPS-induced TLR4/MD2 complex formation preincubated for 30 mins followed by LPS stimulation for 30 mins by co-immunoprecipitation analysis; assay type: cell-based; conditions: dose 2.5-10 µM, time 60.0 min
[21] = test system: RAW264.7; experiment: Antiinflammatory activity against LPS-induced MD2-knockdown mouse RAW264.7 cells assessed as reduction in COX-2 mRNA expression by qRT-PCR analysis; assay type: functional, cell-based
[22] = test system: RAW264.7; experiment: Inhibition of MD2 in LPS-stimulated mouse RAW264.7 cells assessed as reduction in p65 nuclear translocation by measuring red fluorescence intensity in nucleus at 10 uM preincubated for 1 hr followed by LPS stimulation and measured after 6 hrs by DAPI staining based confocal microscopy; conditions: time 7.0 hrs
[23] = test system: RAW264.7; experiment: Inhibition of MD2 in LPS-stimulated mouse RAW264.7 cells assessed as reduction in JNK phosphorylation at 2.5 to 10 uM measured by immunoblot analysis; conditions: dose 2.5-10 µM
[24] = test system: RAW264.7; experiment: Binding affinity to MD2 in mouse RAW264.7 cells assessed as inhibition of LPS/MD2 colocalization at 10 uM preincubated for 1 hr followed by incubation with FITC-conjugated LPS for 1 hr by DAPI staining based confocal microscopy; assay type: cell-based; conditions: time 2.0 hrs
[25] = test system: RAW264.7; experiment: Inhibition of MD2 in LPS-stimulated mouse RAW264.7 cells assessed as reduction in ERK phosphorylation at 2.5 to 10 uM measured by immunoblot analysis; conditions: dose 2.5-10 µM
[26] = Binding affinity to MD2 (unknown origin) assessed as equilibrium dissociation constant by surface plasmon resonance assay; set-up: species or system Homo sapiens

SMILES: C=CC(C)(C)C(=O)Nc1cccc2c1C(=O)C[C@H]1NC[C@@H](C)[C@H](OC(C)=O)[C@H]21
IC50 [1]: 53.3 µM

SMILES: C=CC(C)(C)c1[nH]c2cccc3c2c1C[C@@H]1[C@@H]3[C@@H](OC(C)=O)[C@H](C)CN1C
IC50 [1]: 22.8 µM

SMILES: C=CC(C)(C)c1[nH]c2cccc3c2c1C[C@H]1NC[C@@H](C)[C@H](OC(C)=O)[C@H]31
IC50 [1]: 60.4 µM

SMILES: C=CC(C)(C)C(=O)Nc1cccc2c1C(=O)C[C@@H]1[C@@H]2[C@@H](OC(C)=O)[C@H](C)CN1C
IC50 [1]: 43.2 µM

SMILES: COc1ccc2c(c1)c(CC(=O)O)c(C)n2C(=O)c1ccc(Cl)cc1 [INDOMETHACIN]
IC50 [1]: 11 µM

These reach a lower IC50 [1]. Values come first.

IC50 [1]: 9.47 µM
SMILES: C=CC(C)(C)C(=O)Nc1cccc2c3cc(C)cn(C)c-3cc(=O)c12

IC50 [1]: 7.83 µM
SMILES: C=CC(C)(C)C(=O)Nc1cccc2c1C(=O)C[C@H]1NC[C@H](C)[C@@H](OC(C)=O)[C@@H]21

IC50 [1]: 3.48 µM | Ka [14]: 373 M⁻¹ s⁻¹ | Kdiss [17]: 0.0054 s⁻¹ | Activity [18]: inactive | Kd [26]: 14.5 µM
SMILES: C=CC(C)(C)C(=O)Nc1cccc2c1C(=O)C[C@@H]1[C@H]2[C@H](OC(C)=O)[C@@H](C)CN1C
Activity [2]: Dose-Dependent Effect | inhibition at 10 µM [3]: 68.2% | Activity [4]: Active | Activity [5]: inactive | inhibition [6]: Dose-Dependent Effect | inhibition [7]: Active | inhibition [8]: Active | Activity [9]: inactive | Activity [10]: Active | Activity [11]: inactive | inhibition [12]: Active | Activity [13]: inactive | Activity [15]: Dose-Dependent Effect | inhibition at 10 µM [16]: 84% | inhibition [19]: Dose-Dependent Effect | inhibition [20]: Dose-Dependent Effect | Activity [21]: inactive | inhibition [22]: Active | inhibition [23]: Active | Activity [24]: Active | inhibition [25]: Active
